Measured values reported in article PMC10764104, “Discovery of Molecular Glue Degraders via Isogenic Morphological Profiling” (ACS Chemical Biology, 2023).

Test system: RKO WT cells
Conditions: 48 h, up to 13.5 μM tested
Description: Prior to screening the compound library in the isogenic CPA, we assessed their CRBN binding affinities using a fluorescence-polarization-based competition assay with recombinant DDB1-CRBN and the fluorescent tracer 16 (Figure S2). […] We also assessed the cytotoxicity of the CRBN binders in RKO wild-type (WT) cells to determine the appropriate treatment concentration.
Assessment of gene expression and essentiality in RKO WT
Public datasets on the transcriptome and essentiality of a protein‐encoding gene for RKO (cell line ID: ACH‐000943) were retrieved from DepMap Public 23Q2 (https://depmap.org/portal/, accessed on 14 August 2023). […]
Fluorescence Polarization‐based competition assay
Fluorescence Polarization assays were performed in 384‐well, Low Volume, Black, Round Bottom, Polystyrene Nonbinding surface Microplates (Corning, #4514). […] Fluorescence polarization values were determined with a PerkinElmer Envision reader with FITC FP dual mirror and FITC FP 480 excitation filter and FITC FP 535 emission filters. Fluorescence polarization values of a 10x serial dilution (10 nM to 100 µM) of the test compounds were determined in triplicates. EC50 values were calculated with GraphPad Prism software (version 10.0.2) with a non‐linear fit function (4PL sigmoidal curve fit) adjusting the bottom constrain to the FP value of free tracer. […]

Structure (SMILES): CN(Cc1ncc(C2CC2)o1)S(=O)(=O)Oc1ccc(Nc2ccc3c(c2)C(=O)N(C2CCC(=O)NC2=O)C3=O)cc1 (stereo not shown) [FL2-14]
- cytotoxicity (CellTiter-Glo): not cytotoxic
